Test results published in patent publication US11465998B2, “Therapeutic compounds and methods of use thereof” (Regents of the University of Minnesota, priority 2019, dated 2022).
Entries after “also recorded” stand apart in the source; their conditions may differ.

Key:
[1] = test system: THP-1 NF-κB reporter cells; assay: NF-κB translocation in THP-1 NF-κB reporter cells, alone or with TLR stimuli; assay type: cell-based, human; settings: for enhancement of NF-κB translocation response to TLR2 stimuli: concurrent exposure to compound and TLR2 agonist; for enhancement of NF-κB translocation response to TLR2 stimuli / enhancement of NF-κB translocation response to TLR4 stimuli / enhancement of NF-κB translocation response to TLR5 stimuli: data not shown; for enhancement of NF-κB translocation response to TLR4 stimuli: concurrent exposure to compound and TLR4 agonist; for enhancement of NF-κB translocation response to TLR5 stimuli: concurrent exposure to compound and TLR5 agonist; for enhancement of NF-κB translocation response to TLR7 stimuli: concurrent exposure to graded concentrations of compound and TLR7 agonist; for enhancement of NF-κB translocation response to TLR8 stimuli: concurrent exposure to graded concentrations of compound and TLR8 agonist
Description: Given that Rip2 activity is proximal to several of the components that constitute the multiprotein signaling complexes involved in innate immune signaling, and Rip2 participates in signaling through some, but not all, TLRs, it was of particular interest to examine if the benzimidazole-thiophene-2-carboxamide formula I compounds could synergize with other innate immune stimuli. […] THP-1 NF-κB reporter cells were concurrently exposed to graded concentrations of either 7e or 7f, and a variety of innate immune stimuli, including TLR-2, -3, -4, -5, -7, -8, and -9 agonists. An enhancement in NF-κB translocation was observed.

[2] = test system: human peripheral blood mononuclear cells (PBMCs); assay: Multiplexed immunoassays for human cytokines in PBMCs; assay type: cell-based
Description: Example 5: High-throughput screens in porcine blood: Curated compound collections were obtained from the Institute for Therapeutics Discovery & Development at the University of Minnesota. Compound transfers from source (80 nL of 10 mM stocks) to assay plates were performed using an Echo 550 acoustic liquid handler (Labcyte, Sunnyvale, Calif.). For most libraries, a target final concentration of 10 μM of compound (in a final volume of 80 μL for the assay described below) was achieved. Compound plates were hermetically sealed and stored at −80° C. until used. Fresh, heparin-anticoagulated porcine blood from healthy animals were obtained under USDA supervision from Midwest Research Swine, LLC (Glencoe, Minn.). 80 μL of hematocrit-enriched porcine blood (low-speed centrifugation, followed by resuspension in DMEM supplemented with 10% fetal bovine serum) was added to compound plates and incubated for 15 h. The following day, the plates were briefly centrifuged (100 g, 10 min), and supernatants were transferred using an automated ViaFlow 384 transfer device (Integra Biosciences Corp., Hudson, N.H.) to assay plates containing of 10^6 cells/mL of each of the following NF-κB/secreted alkaline phosphatase reporter cells suspended in HEK-Blue Detection Media: human IFN-α/β, human IFN-γ, human TNF-α/IL-1β (InvivoGen, San Diego, Calif.). NF-κB translocation was assayed spectrophotometrically using an alkaline phosphatase-specific chromogen (present in HEK-detection medium as supplied by InvivoGen) at 620 nm using a SpectraMax M4 multimode microplate reader (Molecular Devices, Sunnyvale, Calif.). Z′ factors were computed for each TLR/NOD-specific signals. Hits were defined as signals >4σ (in-plate standard deviations for test compounds above negative control means), were deconvoluted in full dose-response assays in human TLR-2/-3/-4/-5/-7/-8/-9 and NOD-1/NOD-2-specific reporter cells in liquid handler-assisted assay formats as described previously. Example 6: Murine knockout cell-lines: The following reagents were obtained through BEI Resources, NIAID, NIH: the microglial cell line derived from MAL/MyD88 double knockout Mice (NR-9904), and the macrophage cell line derived from TRIF/TRAM knockout mice (NR-9568). Example 7: Human NOD1/2-specific reporter gene assays (NF-κB induction), and TLR-2/-3/-4/-5/-7/-8/-9/STING/ISG counter-screens: The induction of NF-κB was quantified using human TLR-2/-3/-4/-5/-7/-8/-9/NOD-1/NOD-2/STING/ISG-specific, rapid-throughput, liquid handler-assisted reporter gene assays as previously described by us (Wu, W. et al. J. Med. Chem. 2010, 53, 3198-3213; Shukla, N. M. et al. J. Med. Chem. 2010, 53, 4450-4465; Agnihotri, G. et al. J. Med. Chem. 2011, 54, 1490-1510 and Ukani, R. et al. Bioorg. Med. Chem. Lett. 2012, 22, 293-295). […]

SMILES | enhancement of NF-κB translocation response to TLR2 stimuli [1] | enhancement of NF-κB translocation response to TLR4 stimuli [1] | enhancement of NF-κB translocation response to TLR5 stimuli [1] | enhancement of NF-κB translocation response to TLR7 stimuli [1] | enhancement of NF-κB translocation response to TLR8 stimuli [1] | induction of chemokines and cytokines [2]
CCCCCc1nc2ccccc2n1-c1csc(C(N)=O)c1 [Compound 7e, 4-(2-Pentyl-1H-benzo[d]imidazol-1-yl)thiophene-2-carboxamide] | absent | absent | evident | particularly pronounced; also recorded: enhancement of NF-κB translocation responses | particularly pronounced; also recorded: enhancement of NF-κB translocation responses; also recorded: distinctly biphasic | None of the small molecules (including 1, as well as the optimized, equipotent analogues 7e and 7f) showed any activity; also recorded: absence of induction of chemokines and cytokines
CCCCCCc1nc2ccccc2n1-c1csc(C(N)=O)c1 [Compound 7f, 4-(2-Hexyl-1H-benzo[d]imidazol-1-yl)thiophene-2-carboxamide] | absent | absent | evident | particularly pronounced | particularly pronounced | None of the small molecules (including 1, as well as the optimized, equipotent analogues 7e and 7f) showed any activity; also recorded: essentially identical to that of 7e
